Assays:
[1] = Phase 1 study: safety and tolerability (adverse events, vital signs, ECG, laboratory tests, compliance) of oral ferric maltol; settings: for Patients With an AE: Any AE: safety population
From the text: This phase 1, randomized, open-label, parallel-group pharmacokinetic study involved children seen as outpatients at 6 centers in the UK: Alder Hey Children’s NHS Foundation Trust; King’s College Hospital NHS Foundation Trust; University Hospitals of Leicester NHS Trust; Nottingham University Hospitals NHS Trust; Manchester University NHS Foundation Trust; and University College London Hospitals NHS Foundation Trust. […] Children aged 16 years or older and parents or guardians of children younger than 16 years provided written informed consent to participate before study initiation.
Children aged 10–17 years with confirmed iron deficiency at screening (defined as either ferritin <30 µg/L or ferritin <50 µg/L with transferrin saturation [TSAT] <20%) were eligible for inclusion in the study. Patients with or without anemia could be enrolled, provided hemoglobin was ≥8.5 g/dL at screening. Girls of childbearing potential had to agree to use adequate contraception during and until 4 weeks after the end of the study.
The study comprised a screening period followed by a 10-day randomized treatment period and a post-treatment safety follow-up. Children were randomized 1:1:1 (stratified by age [10–14 vs 15–17 years] and sex) to ferric maltol 7.8 mg, 16.6 mg, or 30 mg twice daily (b.d.) for 9 days and once in the morning of day 10. The first and last doses of ferric maltol were taken in the presence of the investigator. Children took each dose with a glass of water 1 hour before or 2 hours after a meal. Doses were based on daily elemental iron requirements for the broad range of body weights of participants likely to be enrolled, with the aim of finding a minimum effective dose in this age group. The 30 mg b.d. adult dosage was chosen as the highest exposure; dosages of 16.6 mg b.d. and 7.8 mg b.d. were chosen as approximately one-half and one-quarter of the adult dose, respectively, with the exact dose depending on the full fill of available capsule shell sizes.
The primary objectives were to assess iron uptake and ferric maltol pharmacokinetics. Serum iron and TSAT provided measures of iron uptake. In adults, dissociated maltol undergoes rapid glucuronidation and is cleared in urine as maltol glucuronide (36); therefore, in this study, plasma maltol glucuronide was measured to confirm the rate of clearance in children. The secondary objective was to assess the safety and tolerability of ferric maltol in terms of vital signs, AEs, concomitant medications, 12-lead electrocardiograms, and clinical laboratory blood tests.
Safety analyses were conducted in all patients who received at least 1 dose of the study medication and had at least 1 subsequent visit (the safety population). […] Clinically significant changes from baseline in vital signs, physical examination, and routine clinical laboratory abnormalities were also recorded.

[2] = cited from earlier work
[3] = parameters: method as in PMID 34029682; settings: patients with CKD, over 16 weeks; ref [35]; cited from earlier work

Question: What does the source list for `Cc1occc(=O)c1[O-].Cc1occc(=O)c1[O-].Cc1occc(=O)c1[O-].[Fe+3]` [Ferric maltol]?
Answer: Patients with a TEAE: Sneezing ([1]; 30 mg b.d. (n = 12)): 0 (0.0) n (%); Patients with a TEAE: Tonsillitis ([1]; 30 mg b.d. (n = 12)): 0 (0.0) n (%); Patients with a TEAE: Vomiting ([1]; 30 mg b.d. (n = 12)): 0 (0.0) n (%); TEAEs by system organ class: Cardiac disorders ([1]; 30 mg b.d. (n = 12)): 0 (0.0) n (%); TEAEs by system organ class: Gastrointestinal disorders ([1]; 30 mg b.d. (n = 12)): 6 (50.0) n (%); TEAEs by system organ class: General disorders and administration-site conditions ([1]; 30 mg b.d. (n = 12)): 2 (16.7) n (%); TEAEs by system organ class: Injury, poisoning, and procedural complications ([1]; 30 mg b.d. (n = 12)): 1 (8.3) n (%); TEAEs by system organ class: Neoplasms benign, malignant, and unspecified ([1]; 30 mg b.d. (n = 12)): 0 (0.0) n (%); TEAEs by system organ class: Nervous system disorders ([1]; 30 mg b.d. (n = 12)): 5 (41.7) n (%); TEAEs by system organ class: Respiratory, thoracic, and mediastinal disorders ([1]; 30 mg b.d. (n = 12)): 1 (8.3) n (%); TEAEs by system organ class: Skin and subcutaneous-tissue disorders ([1]; 30 mg b.d. (n = 12)): 1 (8.3) n (%); Patients With an AE: Any AE ([1]; 30 mg b.d. (n = 12)): 7 (58.3) n (%); Patients With an AE: Any SAE ([1]; Total, all doses (N = 37)): 0 (0.0) n (%); Patients With an AE: Any TEAE ([1]; Total, all doses (N = 37)): 20 (54.1) n (%); Patients With an AE: TEAE leading to study discontinuation ([1]; Total, all doses (N = 37)): 1 (2.7) n (%); Patients With an AE: TEAE related to study drug ([1]; Total, all doses (N = 37)): 9 (24.3) n (%); Patients with a TEAE: Abdominal distension ([1]; Total, all doses (N = 37)): 1 (2.7) n (%); Patients with a TEAE: Abdominal pain ([1]; Total, all doses (N = 37)): 1 (2.7) n (%); Patients with a TEAE: Anal incontinence ([1]; Total, all doses (N = 37)): 1 (2.7) n (%); Patients with a TEAE: Cellulitis ([1]; Total, all doses (N = 37)): 1 (2.7) n (%); Patients with a TEAE: Constipation ([1]; Total, all doses (N = 37)): 1 (2.7) n (%); Patients with a TEAE: Cough ([1]; Total, all doses (N = 37)): 2 (5.4) n (%); Patients with a TEAE: Diarrhea ([1]; Total, all doses (N = 37)): 3 (8.1) n (%); Patients with a TEAE: Dizziness ([1]; Total, all doses (N = 37)): 3 (8.1) n (%); Patients with a TEAE: Dyspepsia ([1]; Total, all doses (N = 37)): 1 (2.7) n (%); Patients with a TEAE: Dyspnea ([1]; Total, all doses (N = 37)): 1 (2.7) n (%); Patients with a TEAE: Fatigue ([1]; Total, all doses (N = 37)): 4 (10.8) n (%); Patients with a TEAE: Feces discolored ([1]; Total, all doses (N = 37)): 5 (13.5) n (%); Patients with a TEAE: Granuloma skin ([1]; Total, all doses (N = 37)): 1 (2.7) n (%); Patients with a TEAE: Headache ([1]; Total, all doses (N = 37)): 7 (18.9) n (%); Patients with a TEAE: Injection-site pain ([1]; Total, all doses (N = 37)): 1 (2.7) n (%); Patients with a TEAE: Lethargy ([1]; Total, all doses (N = 37)): 1 (2.7) n (%); Patients with a TEAE: Ligament sprain ([1]; Total, all doses (N = 37)): 1 (2.7) n (%); Patients with a TEAE: Lip dry ([1]; Total, all doses (N = 37)): 1 (2.7) n (%); Patients with a TEAE: Nasal congestion ([1]; Total, all doses (N = 37)): 1 (2.7) n (%); Patients with a TEAE: Nasopharyngitis ([1]; Total, all doses (N = 37)): 1 (2.7) n (%); Patients with a TEAE: Nausea ([1]; Total, all doses (N = 37)): 2 (5.4) n (%); Patients with a TEAE: Nevus hemorrhage ([1]; Total, all doses (N = 37)): 1 (2.7) n (%); Patients with a TEAE: Palpitations ([1]; Total, all doses (N = 37)): 1 (2.7) n (%); Patients with a TEAE: Papule ([1]; Total, all doses (N = 37)): 1 (2.7) n (%); Patients with a TEAE: Pyrexia ([1]; Total, all doses (N = 37)): 1 (2.7) n (%); Patients with a TEAE: Skin abrasion ([1]; Total, all doses (N = 37)): 1 (2.7) n (%); Patients with a TEAE: Sneezing ([1]; Total, all doses (N = 37)): 1 (2.7) n (%); Patients with a TEAE: Tonsillitis ([1]; Total, all doses (N = 37)): 1 (2.7) n (%); Patients with a TEAE: Vomiting ([1]; Total, all doses (N = 37)): 2 (5.4) n (%); TEAEs by system organ class: Cardiac disorders ([1]; Total, all doses (N = 37)): 1 (2.7) n (%); TEAEs by system organ class: Gastrointestinal disorders ([1]; Total, all doses (N = 37)): 12 (32.4) n (%); TEAEs by system organ class: General disorders and administration-site conditions ([1]; Total, all doses (N = 37)): 5 (13.5) n (%); TEAEs by system organ class: Injury, poisoning, and procedural complications ([1]; Total, all doses (N = 37)): 2 (5.4) n (%); TEAEs by system organ class: Neoplasms benign, malignant, and unspecified ([1]; Total, all doses (N = 37)): 1 (2.7) n (%); TEAEs by system organ class: Nervous system disorders ([1]; Total, all doses (N = 37)): 9 (24.3) n (%); TEAEs by system organ class: Respiratory, thoracic, and mediastinal disorders ([1]; Total, all doses (N = 37)): 4 (10.8) n (%); TEAEs by system organ class: Skin and subcutaneous-tissue disorders ([1]; Total, all doses (N = 37)): 2 (5.4) n (%); Patients With an AE: Any AE ([1]; Total, all doses (N = 37)): 21 (56.8) n (%); Changes from baseline in vital signs or 12-lead electrocardiogram results ([1]; all doses): No clinically meaningful changes; Patients with laboratory abnormalities considered as TEAEs or SAEs ([1]; all doses): No patients; Children who experienced a TEAE ([1]; all doses, N = 37): 54%; Children with a TEAE related to the study drug ([1]; all doses, N = 37): 24%; Deaths or SAEs ([1]; all doses, N = 37): no deaths or SAEs; Drug-related TEAE anal incontinence ([1]; all doses, N = 37): 1 patient; Drug-related TEAE constipation ([1]; all doses, N = 37): 1 patient; Drug-related TEAE diarrhea ([1]; all doses, N = 37): 2 n; Drug-related TEAE dizziness ([1]; all doses, N = 37): 2 n; Drug-related TEAE dyspepsia ([1]; all doses, N = 37): 1 patient; Drug-related TEAE dyspnea ([1]; all doses, N = 37): 1 patient; Drug-related TEAE fatigue ([1]; all doses, N = 37): 2 n; Drug-related TEAE feces discoloration ([1]; all doses, N = 37): 5 n; Drug-related TEAE headache ([1]; all doses, N = 37): 3 n; Drug-related TEAE lethargy ([1]; all doses, N = 37): 1 patient; Drug-related TEAE nausea ([1]; all doses, N = 37): 1 patient; Drug-related TEAE palpitations ([1]; all doses, N = 37): 1 patient; Drug-related TEAE papule ([1]; all doses, N = 37): 1 patient; Gastrointestinal TEAEs, overall ([1]; all doses, N = 37): 32%; Nervous system disorders TEAEs, overall ([1]; all doses, N = 37): 24%; TEAE abdominal distension, number of children ([1]; all doses, N = 37): 1 n; TEAE abdominal pain, number of children ([1]; all doses, N = 37): 1 n; TEAE anal incontinence, number of children ([1]; all doses, N = 37): 1 n; TEAE constipation, number of children ([1]; all doses, N = 37): 1 n; TEAE diarrhea, number of children ([1]; all doses, N = 37): 3 n; TEAE dizziness, number of children ([1]; all doses, N = 37): 3 n; TEAE dyspepsia, number of children ([1]; all doses, N = 37): 1 n; TEAE fecal discoloration, number of children ([1]; all doses, N = 37): 5 n; TEAE headache, number of children ([1]; all doses, N = 37): 7 n; TEAE lethargy, number of children ([1]; all doses, N = 37): 1 n; TEAE nausea, number of children ([1]; all doses, N = 37): 2 n; TEAE vomiting, number of children ([1]; all doses, N = 37): 2 n; Children who experienced a TEAE ([1]; all doses, N = 37, listed as ferric maltol): 54.1%; Severity of TEAEs ([1]; all doses, all recovered or resolved): mild or moderate; Hemoglobin concentrations versus placebo ([2]; patients with IBD, over 12 weeks, ref [19]): significantly increased hemoglobin concentrations compared with placebo; Incidence of gastrointestinal TEAEs ([2]; phase 3 trial in adults with IBD, ref [19],[20]): 38%; Hemoglobin and iron indices [3]: statistical and clinically significant increases in hemoglobin and iron indices

Source: paper PMC10191551, “Safety, Tolerability, and Pharmacokinetics of Oral Ferric Maltol in Children With Iron Deficiency: Phase 1 Study” (JPGN Reports, 2021)
